Data as given in patent US20080145858A1, “DETECTION AND IDENTIFICATION OF TOXICANTS BY MEASUREMENT OF GENE […]” (priority 2003, published 2008).
Marks after values point to notes of the source that are not given here.

System: Xenopus laevis cleavage stage embryos (stage 8)
Experiment: Xenopus cDNA microarray, differential gene expression after PMA treatment during cleavage stage (Group I)
Format: in vivo
Conditions: for Normalization by Landmarks (1.6) / Normalization by all Data Points (1.3) / Ratio of Medians (Cy5/Cy3) First Spot / Ratio of Medians (Cy5/Cy3) Mean / Ratio of Medians (Cy5/Cy3) Second Spot / Normalized by Landmarks (1.59) / Normalized by all Data Points (1.28) / (CY3/CY5) by Landmarks (1.6) / (CY3/CY5) by all Data Points (1.3): PMA 100 ng/ml; for % increase of mRNA expression by Microarray analysis (NF by all data point): Stage 8
Source text: Specifically, the method and screen of the present invention function as follows. EST clones produced from Xenopus laevis unfertilized eggs were used in the present study with ˜1,200 EST clones from a 18,500 EST clone set selected for production of a Xenopus cDNA microarray. The Xenopus microarray was used to measure the effect of chemical treatment on Xenopus embryo gene regulation. The chemical treatment was a phorbol ester, PMA. Xenopus eggs were obtained from females induced for ovulation and fertilized in vitro. Control Xenopus laevis embryos were allowed to develop to stage 8 blastula or stage 15 neurula. Treated embryos were exposed to PMA during cleavage stage or during neurulation with end points of blastula (stage 8) or neurula (stage 15). Specifically, PMA 100 ng/ml was added to the incubation media during cleavage stages for evaluation in stage 8 embryo or PMA was added during neural induction for evaluation in stage 15 embryos. RNA extracted from the embryos was used to generate fluorescent cDNA probes for Xenopus microarray analyses to measure differential gene expression with and without the phorbol ester treatment. Analysis was performed using paired RNA samples to compare PMA-treated and untreated embryos: Group I measured the effects of PMA-treatment during the cleavage stage in stage 8 embryos and Group II measured the effects of PMA-treatment during neurulation in stage 15 embryos. Group III measured the change in gene expression between stage 8 and stage 15 embryos.
cDNA fragments were obtained by PCR replication of Xenopus laevis unfertilized egg cDNA inserts, purified, quantitated and loaded onto glass chips by robotics. In addition to the selected ˜1,200 genes, 64 lambda Q gene, an internal control cDNA (Genomic Solutions, Inc., Ann Arbor, Mich.) was loaded on the chip. The insert DNA from ˜1,200 clones were PCR amplified using forward and reverse primers (GF.200 primers, Research Genetics, Huntsville, Ala.). A second PCR was carried out using 1 μl of the primary PCR (20 μl) for template. Excess dNTPs, polymerase and other PCR artifacts were removed from the secondary PCR reactions using Millipore Multiscreen plates (Millipore Corporation, Bedford, Mass.) using the standard protocol. The purity of the PCR products was assessed by electrophoresis and documented using an Alphalmager 1000 Digital Imaging System (Alpha Innotech Corporation, San Leandro, Calif.). The DNA obtained by PCR was quantitated using PicoGreen (Molecular Probes, Eugene, Oreg.). The DNA was denatured and arrayed onto amino-silane coated microscope slides (CMT-GAPS coated slides, Corning, Corning, N.Y.) using a Flexys robotic workstation (Genomic Solutions Inc.). The ˜1,200 PCR products were arrayed in duplicate on each slide and cross-linked. Each gene chip contained duplicate cDNA samples.
Total RNA was prepared from embryos treated in three separate dishes per treatment group that were pooled. Total RNA was isolated from the frog embryos (1,200 embryos for each probe production) using TRIzol extraction (Gibco BRL, Grand Island, N.Y.) and Qiagen RNeasy kits (Qiagen, Valencia, Calif.). The ethanol precipitated RNA was resuspended in RNase-free water, quantitated with RiboGreen (Molecular Probes, Eugene, Oreg.). Total RNA was further purified using oligoTex mRNA maxi kit (Qiagen Co.) with the bound mRNA eluted with minimum volume of elution buffer and precipitated with ethanol. The recovery rate of mRNA by the ethanol precipitation method was ˜70%. Cy3- or Cy5-tagged probes were produced from an mRNA mixture (20 μl) of Xenopus mRNA (5 μg) and lambda Q gene mRNA (3.5 ng) reverse-transcribed with oligo(dT)18-22 primer and dNTPs and the reverse-transcribed cDNA was cross-linked with Cy3 or Cy5 as described in Clontech Atlas™ Glass Fluorescent Labeling kit manual (www.clontech.com). After hydrolysis of the RNA and purification of the probe (Centricon 50, Millipore, Bedford, Mass.), the cDNA in TE buffer was quantitated by absorbance at 260 nm. […]

[1] = cleavage and neurulation stage embryos
[2] = ras-related protein gene, stage 8

CCCCCCCCCCCCCC(=O)O[C@@H]1[C@@H](C)[C@@]2(O)[C@@H](C=C(CO)C[C@]3(O)C(=O)C(C)=C[C@@H]23)[C@@H]2C(C)(C)[C@]12OC(C)=O [PMA, phorbol 12-myristate 12-acetate]
Normalization by Landmarks (1.6) (PBX0143D10 mRNA, stage 8): 0.64 | Normalization by all Data Points (1.3) (PBX0143D10 mRNA, stage 8): 0.40 | Ratio of Medians (Cy5/Cy3) First Spot (PBX0143D10 mRNA, stage 8): 0.22 | Ratio of Medians (Cy5/Cy3) Mean (PBX0143D10 mRNA, stage 8): 0.31 ± 0.11 | Ratio of Medians (Cy5/Cy3) Second Spot (PBX0143D10 mRNA, stage 8): 0.40 | Normalized by Landmarks (1.59) (PBX0143E06 mRNA, stage 8): 3.85 | Normalized by all Data Points (1.28) (PBX0143E06 mRNA, stage 8): 3.10 | Ratio of Medians (Cy5/Cy3) First Spot (PBX0143E06 mRNA, stage 8): 2.92 | Ratio of Medians (Cy5/Cy3) Mean (PBX0143E06 mRNA, stage 8): 2.42 ± 0.50 | Ratio of Medians (Cy5/Cy3) Second Spot (PBX0143E06 mRNA, stage 8): 1.91 | (CY3/CY5) by Landmarks (1.6) (PBX0144A09 mRNA, stage 8): 6.45 | (CY3/CY5) by all Data Points (1.3) (PBX0144A09 mRNA, stage 8): 10.33 | Normalization by Landmarks (1.6) (PBX0144A09 mRNA, stage 8): 0.15 | Normalization by all Data Points (1.3) (PBX0144A09 mRNA, stage 8): 0.10 | Ratio of Medians (Cy5/Cy3) First Spot (PBX0144A09 mRNA, stage 8): 0.06 | Ratio of Medians (Cy5/Cy3) Mean (PBX0144A09 mRNA, stage 8): 0.07 ± 0.02 ^a | Ratio of Medians (Cy5/Cy3) Second Spot (PBX0144A09 mRNA, stage 8): 0.09 | Normalized by Landmarks (1.59) (PBX0144C12 mRNA, stage 8): 5.55 | Normalized by all Data Points (1.28) (PBX0144C12 mRNA, stage 8): 4.47 | Ratio of Medians (Cy5/Cy3) First Spot (PBX0144C12 mRNA, stage 8): 4.75 | Ratio of Medians (Cy5/Cy3) Mean (PBX0144C12 mRNA, stage 8): 3.49 ± 1.26 | Ratio of Medians (Cy5/Cy3) Second Spot (PBX0144C12 mRNA, stage 8): 2.23 | Normalized by Landmarks (1.59) (PBX0144E04 mRNA, stage 8): 5.45 | Normalized by all Data Points (1.28) (PBX0144E04 mRNA, stage 8): 4.38 | Ratio of Medians (Cy5/Cy3) First Spot (PBX0144E04 mRNA, stage 8): 3.67 | Ratio of Medians (Cy5/Cy3) Mean (PBX0144E04 mRNA, stage 8): 3.42 ± 0.25 | Ratio of Medians (Cy5/Cy3) Second Spot (PBX0144E04 mRNA, stage 8): 3.17 | Normalized by Landmarks (1.59) (PBX0145A06 mRNA, stage 8): 4.55 | Normalized by all Data Points (1.28) (PBX0145A06 mRNA, stage 8): 3.66 | Ratio of Medians (Cy5/Cy3) First Spot (PBX0145A06 mRNA, stage 8): 2.27 | Ratio of Medians (Cy5/Cy3) Mean (PBX0145A06 mRNA, stage 8): 2.86 ± 0.59 | Ratio of Medians (Cy5/Cy3) Second Spot (PBX0145A06 mRNA, stage 8): 3.44 | (CY3/CY5) by Landmarks (1.6) (PBX0145A10 mRNA, stage 8): 1.93 | (CY3/CY5) by all Data Points (1.3) (PBX0145A10 mRNA, stage 8): 3.10 | Normalization by Landmarks (1.6) (PBX0145A10 mRNA, stage 8): 0.52 | Normalization by all Data Points (1.3) (PBX0145A10 mRNA, stage 8): 0.32 | Ratio of Medians (Cy5/Cy3) First Spot (PBX0145A10 mRNA, stage 8): 0.28 | Ratio of Medians (Cy5/Cy3) Mean (PBX0145A10 mRNA, stage 8): 0.25 ± 0.03 | Ratio of Medians (Cy5/Cy3) Second Spot (PBX0145A10 mRNA, stage 8): 0.22 | (CY3/CY5) by Landmarks (1.6) (PBX0145E05 mRNA, stage 8): 5.43 | (CY3/CY5) by all Data Points (1.3) (PBX0145E05 mRNA, stage 8): 8.69 | Normalization by Landmarks (1.6) (PBX0145E05 mRNA, stage 8): 0.18 | Normalization by all Data Points (1.3) (PBX0145E05 mRNA, stage 8): 0.12 | Ratio of Medians (Cy5/Cy3) First Spot (PBX0145E05 mRNA, stage 8): 0.11 | Ratio of Medians (Cy5/Cy3) Mean (PBX0145E05 mRNA, stage 8): 0.09 ± 0.02 | Ratio of Medians (Cy5/Cy3) Second Spot (PBX0145E05 mRNA, stage 8): 0.07 | (CY3/CY5) by Landmarks (1.6) (PBX0145E09 mRNA, stage 8): 2.76 | (CY3/CY5) by all Data Points (1.3) (PBX0145E09 mRNA, stage 8): 4.42 | Normalization by Landmarks (1.6) (PBX0145E09 mRNA, stage 8): 0.36 | Normalization by all Data Points (1.3) (PBX0145E09 mRNA, stage 8): 0.23 | Ratio of Medians (Cy5/Cy3) First Spot (PBX0145E09 mRNA, stage 8): 0.16 | Ratio of Medians (Cy5/Cy3) Mean (PBX0145E09 mRNA, stage 8): 0.17 ± 0.02 | Ratio of Medians (Cy5/Cy3) Second Spot (PBX0145E09 mRNA, stage 8): 0.19 | (CY3/CY5) by Landmarks (1.6) (PBX0145E10 mRNA, stage 8): 2.85 | (CY3/CY5) by all Data Points (1.3) (PBX0145E10 mRNA, stage 8): 4.57 | Normalization by Landmarks (1.6) (PBX0145E10 mRNA, stage 8): 0.35 | Normalization by all Data Points (1.3) (PBX0145E10 mRNA, stage 8): 0.22 | Ratio of Medians (Cy5/Cy3) First Spot (PBX0145E10 mRNA, stage 8): 0.21 | Ratio of Medians (Cy5/Cy3) Mean (PBX0145E10 mRNA, stage 8): 0.17 ± 0.05 | Ratio of Medians (Cy5/Cy3) Second Spot (PBX0145E10 mRNA, stage 8): 0.12 | Normalized by Landmarks (1.59) (PBX0145H10 mRNA, stage 8): 3.78 | Normalized by all Data Points (1.28) (PBX0145H10 mRNA, stage 8): 3.05 | Ratio of Medians (Cy5/Cy3) First Spot (PBX0145H10 mRNA, stage 8): 2.90 | Ratio of Medians (Cy5/Cy3) Mean (PBX0145H10 mRNA, stage 8): 2.38 ± 0.52 | Ratio of Medians (Cy5/Cy3) Second Spot (PBX0145H10 mRNA, stage 8): 1.86 | expression of gene of EST PBX0144A09 [1]: highly down-regulated | expression of genes of ESTs PBX0134G08, PBX0144C12, PBX0136C09, PBX0134H03, PBX0136F03, PBX0143E06 and PBX0137G06 [1]: highly up-regulated | up-regulation of the 25 highly up-regulated Xenopus genes (cleavage stage, treated vs untreated embryos, Table 1, Panel A): 3-8 fold | % increase of mRNA expression by Microarray analysis (NF by all data point) (gene PBX0135A08): 270%^a % of control | % increase of mRNA expression by Microarray analysis (NF by all data point) (gene PBX013409): 380% of control | RAB-1A expression ratio [2]: 2.10 | RAB-9 expression [2]: down-regulated | RAP-1B expression [2]: down-regulated | Phosphatase 2A regulatory subunit expression (PBX0140D01) (stage 8): 3 fold
